From ChEMBL document CHEMBL3259726, “Identification of a new series of potent diphenol HSP90 inhibitors by fragment merging and structure-based optimization” (Bioorg Med Chem Lett, 2014) come the findings set out here.

Data set [1] deals with T1, Heat shock protein HSP 90-alpha (Homo sapiens, UniProt P07900). As to the kind of experiment: biochemical.
Description: Displacement of GM-BODIPY from human full length HSP90 alpha expressed in baculovirus-infected Sf9 cells after 16 hrs by fluorescence polarization assay
Data set [2] can be described thus: Retention time of the compound. It is filed as physicochemical.
For the next data set, the target named is CYP2C19 (Homo sapiens, UniProt P33261). Nature of the data set: Inhibition of CYP2C19 in human liver microsomes using mephenytoin as substrate at 10 uM. It is filed as ADME. The settings on record: probe mephenytoin. Background: Liver microsomes are vesicles of endoplasmic reticulum, rich in cytochrome P450 enzymes.
CYP2C19, sequence (P33261 whole entry): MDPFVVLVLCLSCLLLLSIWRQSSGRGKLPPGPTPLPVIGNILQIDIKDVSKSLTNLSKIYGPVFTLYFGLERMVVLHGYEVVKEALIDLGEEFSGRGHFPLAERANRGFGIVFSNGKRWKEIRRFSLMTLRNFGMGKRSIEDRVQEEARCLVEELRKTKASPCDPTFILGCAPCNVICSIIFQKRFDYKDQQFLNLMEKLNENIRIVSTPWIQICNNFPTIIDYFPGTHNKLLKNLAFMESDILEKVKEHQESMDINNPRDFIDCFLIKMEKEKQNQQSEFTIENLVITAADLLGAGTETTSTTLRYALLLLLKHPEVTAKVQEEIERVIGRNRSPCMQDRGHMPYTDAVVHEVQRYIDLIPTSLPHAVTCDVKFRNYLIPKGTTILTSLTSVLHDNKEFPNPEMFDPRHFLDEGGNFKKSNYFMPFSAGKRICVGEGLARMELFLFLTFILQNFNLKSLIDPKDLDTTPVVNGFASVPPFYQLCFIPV
The target in the next data set is Cytochrome P450 2C19 (Homo sapiens, UniProt P33261). As to the kind of experiment: Time-dependent inhibition of CYP2C19 in human liver microsomes using mephenytoin as substrate at 10 uM. Particulars: TDE = time-dependent effect. It is filed as ADME.
Cytochrome P450 2C19, sequence (P33261 whole entry): as above
For the next data set, the target named is T2, CYP1A2 (Homo sapiens, UniProt P05177).
T2 sequence (P05177 whole entry): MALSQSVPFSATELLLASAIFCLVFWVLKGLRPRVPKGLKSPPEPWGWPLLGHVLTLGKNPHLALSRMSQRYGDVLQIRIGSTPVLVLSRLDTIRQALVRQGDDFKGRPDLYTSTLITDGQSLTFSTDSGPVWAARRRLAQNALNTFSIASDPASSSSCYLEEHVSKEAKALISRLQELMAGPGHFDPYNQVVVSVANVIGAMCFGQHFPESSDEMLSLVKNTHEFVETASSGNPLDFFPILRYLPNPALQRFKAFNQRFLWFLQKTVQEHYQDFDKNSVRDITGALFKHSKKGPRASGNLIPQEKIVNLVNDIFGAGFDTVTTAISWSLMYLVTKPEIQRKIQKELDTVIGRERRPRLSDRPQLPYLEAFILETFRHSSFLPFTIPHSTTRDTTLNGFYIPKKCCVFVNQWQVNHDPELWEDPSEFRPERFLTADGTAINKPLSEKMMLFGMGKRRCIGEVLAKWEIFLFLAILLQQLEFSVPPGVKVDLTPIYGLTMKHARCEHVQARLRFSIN
As to the kind of experiment: Inhibition of CYP1A2 in human liver microsomes using phenacetin as substrate at 10 uM. The settings on record: probe phenacetin. It is filed as ADME.

The target in a further data set is CYP2D6 (Homo sapiens, UniProt P10635). Nature of the data set: Inhibition of CYP2D6 in human liver microsomes using dextromethorphan as substrate at 10 uM. Particulars: probe dextromethorphan. It is filed as ADME.
CYP2D6, sequence (P10635 whole entry): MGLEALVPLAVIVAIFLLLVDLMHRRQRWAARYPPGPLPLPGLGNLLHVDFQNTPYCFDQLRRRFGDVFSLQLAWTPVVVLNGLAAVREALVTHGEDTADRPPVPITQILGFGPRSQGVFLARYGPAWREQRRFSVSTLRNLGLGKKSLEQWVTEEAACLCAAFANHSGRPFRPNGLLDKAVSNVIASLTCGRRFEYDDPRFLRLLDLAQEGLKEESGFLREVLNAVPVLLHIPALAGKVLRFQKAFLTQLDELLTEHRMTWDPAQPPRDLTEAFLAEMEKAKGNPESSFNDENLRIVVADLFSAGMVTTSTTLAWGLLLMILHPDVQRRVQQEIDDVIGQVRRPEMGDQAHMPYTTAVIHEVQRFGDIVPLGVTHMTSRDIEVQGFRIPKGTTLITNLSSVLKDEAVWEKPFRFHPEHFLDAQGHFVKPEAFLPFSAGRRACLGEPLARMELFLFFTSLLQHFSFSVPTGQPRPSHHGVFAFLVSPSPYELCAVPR
Data set [3] in a line: Intrinsic clearance in rat liver microsomes at 1 uM after 5 mins by LC-MS/MS analysis. It is filed as ADME. Particulars: read-out: CLH.
The target in a further data set is CYP3A4 (Homo sapiens, UniProt P08684). Nature of the data set: Inhibition of CYP3A4 in human liver microsomes using midazolam or testosterone as substrate at 10 uM. It is filed as ADME. The settings on record: probe midazolam or testosterone.
CYP3A4, sequence (P08684 whole entry): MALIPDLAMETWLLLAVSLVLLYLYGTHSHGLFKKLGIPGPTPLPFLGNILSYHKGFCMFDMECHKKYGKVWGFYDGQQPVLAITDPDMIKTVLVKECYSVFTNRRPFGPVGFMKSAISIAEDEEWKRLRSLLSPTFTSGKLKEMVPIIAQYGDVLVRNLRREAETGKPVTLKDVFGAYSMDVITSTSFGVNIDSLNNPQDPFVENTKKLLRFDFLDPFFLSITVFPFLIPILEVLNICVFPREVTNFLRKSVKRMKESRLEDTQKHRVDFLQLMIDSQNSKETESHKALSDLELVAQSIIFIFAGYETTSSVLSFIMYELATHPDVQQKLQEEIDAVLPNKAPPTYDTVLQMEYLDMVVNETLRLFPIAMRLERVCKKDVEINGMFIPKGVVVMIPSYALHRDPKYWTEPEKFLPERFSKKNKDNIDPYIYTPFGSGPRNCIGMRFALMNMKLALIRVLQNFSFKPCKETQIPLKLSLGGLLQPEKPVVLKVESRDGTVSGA
The next data set deals with CYP2C9 (Homo sapiens, UniProt P11712). Nature of the data set: Inhibition of CYP2C9 in human liver microsomes using diclofenac as substrate at 10 uM. It is filed as ADME. Particulars: probe diclofenac.
CYP2C9, sequence (P11712 whole entry): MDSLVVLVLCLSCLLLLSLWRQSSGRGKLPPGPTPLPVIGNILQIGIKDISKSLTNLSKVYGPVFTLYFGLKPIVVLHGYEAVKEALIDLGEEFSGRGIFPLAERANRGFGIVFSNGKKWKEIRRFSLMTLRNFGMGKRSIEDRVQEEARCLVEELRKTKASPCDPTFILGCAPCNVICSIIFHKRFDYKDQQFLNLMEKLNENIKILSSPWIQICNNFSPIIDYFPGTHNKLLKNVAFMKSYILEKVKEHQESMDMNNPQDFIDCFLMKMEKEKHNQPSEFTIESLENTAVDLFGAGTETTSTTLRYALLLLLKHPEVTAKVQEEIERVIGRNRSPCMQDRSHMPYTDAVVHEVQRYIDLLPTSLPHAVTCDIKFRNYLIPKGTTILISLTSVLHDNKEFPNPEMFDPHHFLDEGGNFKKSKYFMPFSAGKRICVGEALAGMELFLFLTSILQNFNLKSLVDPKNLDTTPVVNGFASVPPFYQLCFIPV
A short description of data set [4]: Intrinsic clearance in human liver microsomes at 1 uM after 5 mins by LC-MS/MS analysis. It is filed as ADME. Particulars: read-out: CLH.
The target in data set [5] is T1, Heat shock protein HSP 90-alpha. Nature of the data set: Displacement of GM-BODIPY from human full length HSP90 alpha expressed in baculovirus-infected Sf9 cells at 5 uM after 16 hrs by fluorescence polarization assay.
The target is the same in data set [6]. As to the kind of experiment: Displacement of GM-BODIPY from human full length HSP90 alpha expressed in baculovirus-infected Sf9 cells at 1 uM after 16 hrs by fluorescence polarization assay. Background: In fluorescence polarisation assays a small probe gives low polarisation when free and higher when bound to something large.
Data set [7] can be described thus: Growth inhibition of human BT474 cells after 72 hrs by spectrophotometer analysis. The settings on record: BT-474, 72 h. It is filed as functional.
Data set [8] in a line: Growth inhibition of human NCI-H3122 cells after 72 hrs by spectrophotometer analysis. It is filed as functional. Particulars: NCI-H3122, 72 h.
Another data set has as its system A549. Nature of the data set: Growth inhibition of human A549 cells after 72 hrs by spectrophotometer analysis. It is filed as functional. Particulars: A549, 72 h.
The test system of another data set is HCT-116. As to the kind of experiment: Growth inhibition of human HCT116 cells after 72 hrs by spectrophotometer analysis. The settings on record: HCT-116, 72 h. It is filed as functional.

Usually IC50 stands for the point on the concentration scale where inhibition reaches its midpoint. With `CNC(=O)c1cccc2c1ccn2-c1cc(C(=O)N2Cc3ccccc3C2)c(O)cc1O`, it took 0.62 µM to reach half-maximal inhibition in [1] (IC50). Moreover, in [2], the Retention_time is 2.74 min.
In the case of `COC(=O)c1cccc2c1ccn2-c1cc(C(=O)N2Cc3ccccc3C2)c(O)cc1O`, the IC50 in data set [1] came to 0.13 µM. The same molecule came in with a Retention_time in data set [2] of 3.32 min.
The inhibition is the drop in the measured response relative to a control, in per cent. As to `O=C(c1cc(-n2ccc3c([N+](=O)[O-])cccc32)c(O)cc1O)N1Cc2ccccc2C1`, the inhibition at 10 µM against CYP2C19 came out at 89%; against CYP1A2, 47%; against CYP2D6 it was 50%; against CYP3A4, 8%; on CYP2C9 it was 74%. In addition, the “inhibition (INH)” value at Cytochrome P450 2C19 is “tde”. In data set [1], this molecule had an IC50 of 0.039 µM. Besides, the microsomal CLint at 1 µM in data set [3] was 6 µL/min/mg; in data set [4], 22 µL/min/mg. Moreover, in [2], the Retention_time was found to be 3.45 min.
In turn, `COc1ccc2c(c1)c(CCN)cn2-c1cc(C(=O)N2Cc3ccccc3C2)c(O)cc1O` yielded a 50% inhibitory concentration (IC50) in [1] of 1.5 µM. Further, the Retention_time in [2] is 2.69 min.
Turning to `CN1CCN(C(=O)c2cc(-c3nnc4ccc(Br)cn34)c(O)cc2O)CC1`, the Retention_time in [2] turned out to be 1.86 min. In data set [5], this molecule showed an inhibition of 8.8%.
In turn, `COc1ccc2c(c1)c(CCNC(C)=O)cn2-c1cc(C(=O)N2Cc3ccccc3C2)c(O)cc1O` gave a Retention_time in data set [2] of 3.04 min. Also, in data set [6], the inhibition came to 56.9%.
Regarding `O=C(c1cc(-c2nnc3ccc(Br)cn23)c(O)cc1O)N1CCc2ccccc2C1`, the Retention_time in data set [2] amounted to 2.76 min. Also, the inhibition in data set [5] turned out to be 18.7%.
Turning to `O=C(c1cc(Nc2ccccc2)c(O)cc1O)N1Cc2ccccc2C1`, the inhibition at 10 µM on CYP2C19 was 52%; against CYP1A2, 72%; against CYP2D6, 22%; at CYP3A4, 19%; at CYP2C9, 68%. For the same molecule, in [1], the IC50 stood at 0.021 µM. Also, the figures for the microsomal CLint at 1 µM in data set [3] and in data set [4] were 12 µL/min/mg and 2 µL/min/mg, respectively. For the same molecule, the Retention_time in [2] is recorded as 3.12 min.
In turn, `O=C(c1cc(-n2ccc3cnccc32)c(O)cc1O)N1Cc2ccccc2C1` gave an IC50 in [1] of 0.25 µM. This molecule came in with a Retention_time in [2] of 2.45 min.
In general, GI50 refers to the concentration that inhibits growth by half. A high value points to lower sensitivity of the cells. For `O=C(c1cc(-n2ccc3c(Br)cccc32)c(O)cc1O)N1Cc2ccccc2C1`, the inhibition at 10 µM against CYP2C19 turned out to be 70%; against CYP1A2, 34%; at CYP2D6, 19%; on CYP3A4, 22%; against CYP2C9 it was 54%. The GI50 in data set [7] was determined as 8.52 µM; in [8], 9.67 µM; in the data set on A549 it was 21 µM; in the data set on HCT-116, 12.3 µM. Half-maximal inhibition in data set [1] (IC50) required 0.07 µM. The microsomal CLint at 1 µM in [3] was 49 µL/min/mg. Also, the Retention_time in data set [2] is on record as 3.8 min.
With `O=C(c1cc(-n2ccc3ccccc32)c(O)cc1O)N1Cc2ccccc2C1`, the inhibition at 10 µM against CYP2C19 is 60%; at CYP1A2, 52%; at CYP2D6, 14%; against CYP3A4, 17%; against CYP2C9, 73%. Also, the 50% growth inhibitory concentration (GI50) in [7] is 7.25 µM; in [8], 7.53 µM; in the data set on A549, 14.3 µM; in the data set on HCT-116, 10.1 µM. The same molecule yielded an IC50 in data set [1] of 0.038 µM. Moreover, the results for the microsomal CLint at 1 µM in data set [3] and in data set [4] were 25 µL/min/mg and 13 µL/min/mg, respectively. This molecule returned a Retention_time in data set [2] of 3.56 min.
With `O=C(O)Cc1cn(-c2cc(C(=O)N3Cc4ccccc4C3)c(O)cc2O)c2ccccc12`, in data set [2], the Retention_time amounted to 2.97 min. In data set [6], this molecule showed an inhibition of 14.1%.
`O=C(c1cc(Nc2ccc(Cl)cc2Cl)c(O)cc1O)N1Cc2ccccc2C1`: the inhibition at 10 µM against CYP2C19 came to 23%; against CYP1A2 it was 40%; against CYP2D6, 5%; at CYP3A4, 33%; against CYP2C9 it was 73%. Besides, the 50% growth inhibitory concentration (GI50) was found to be 6.31 µM in data set [7], 10.1 µM in data set [8], 24.2 µM with A549 and 10.6 µM in the data set on HCT-116. Besides, the half-maximal inhibitory concentration (IC50) in data set [1] came out at 0.19 µM. For the same molecule, in [3], the microsomal CLint at 1 µM was found to be 16 µL/min/mg. For the same molecule, the Retention_time in data set [2] is listed as 3.87 min.
As to `O=C(c1cc(-n2ccc3ccccc32)c(O)cc1O)N1CCc2ccccc2C1`, in data set [1], the half-inhibitory concentration (IC50) was 0.13 µM. The same molecule had a Retention_time in data set [2] of 3.54 min.
For the molecule `O=C(c1cc(-n2ccc3cc(Br)ccc32)c(O)cc1O)N1Cc2ccccc2C1`, the inhibition at 10 µM amounted to 71% at CYP2C19; 48% at CYP1A2; 32% against CYP2D6; 13% against CYP3A4; 78% on CYP2C9. For the same molecule, the midpoint of inhibition in [1], the IC50, lay at 0.078 µM. Further, the microsomal CLint at 1 µM in data set [3] came out at 16 µL/min/mg; in data set [4], 18 µL/min/mg. In data set [2], this molecule registered a Retention_time of 3.8 min.
As to `Cc1ccc(Nc2cc(C(=O)N3Cc4ccccc4C3)c(O)cc2O)cc1`, the inhibition at 10 µM against CYP2C19 was found to be 58%; against CYP1A2, 61%; against CYP2D6, 7%; against CYP3A4, 38%; against CYP2C9, 75%. Moreover, inhibition in [1] was half-maximal at 0.071 µM (IC50). The same molecule had a Retention_time in data set [2] of 3.29 min.
`O=C(c1cc(-n2ccc3ncccc32)c(O)cc1O)N1Cc2ccccc2C1` registered a concentration for half-maximal inhibition (IC50) in data set [1] of 0.13 µM. The Retention_time in data set [2] is given as 2.4 min.
The like results for `O=C(c1cc(-n2ccc3ccccc32)c(O)cc1O)N1CCc2sccc2C1` were, in that order, 0.33 µM and 3.45 min.
In data set [1], `CN1CCN(C(=O)c2cc(-n3ccc4ccccc43)c(O)cc2O)CC1` registered an IC50 of 0.63 µM. Also, the Retention_time in data set [2] is 2.35 min.
As for `Cc1ccc2c(ccn2-c2cc(C(=O)N3Cc4ccccc4C3)c(O)cc2O)c1`, the inhibition at 10 µM against CYP2C19 was 63%; on CYP1A2, 28%; against CYP2D6, 7%; against CYP3A4, 4%; against CYP2C9, 68%. In addition, the 50% growth inhibitory concentration (GI50) in data set [7] turned out to be 7.07 µM; in [8], 7.53 µM; with A549 it was 11.1 µM; in the data set with HCT-116 it was 8.6 µM. For the same molecule, the IC50 in data set [1] amounted to 0.038 µM. Moreover, the microsomal CLint at 1 µM in data set [3] amounted to 42 µL/min/mg. The same molecule came in with a Retention_time in data set [2] of 3.68 min.
